Where no end group is shown, it is not given here.
How the values were obtained:
[1] = system: prostate cancer cell lines; conditions: background statement; cited from earlier work
[2] = system: NEM receptors on prostate cancer cells; test: Binding of NEM to its receptors on prostate cancer cells
[3] = system: OVCA-5; test: Growth of non-prostate cancer cells (bone-derived cell lines); type: cell-based
[4] = system: PC-3M cells; test: 3H-thymidine incorporation (DNA synthesis) in PC-3M cells; type: cell-based; conditions: 24 hours, FIG. 1
Procedure: FIG. 1 illustrates the effect of exogenously added prostatic NEM on DNA synthesis of an aggressive prostate cancer (PC-3M) cell line. To obtain the results shown in FIG. 1, PC-3M cells were seeded at a density of 10,000 cells per well and incubated overnight in the complete medium. The cells were then washed with and incubated in serum-free medium containing the agents and 0.5 μCi of 3H-thymidine for 24 hours. At the end of incubation, the cells were washed three times with PBS-1 μM thymidine and the incorporated radioactivity was determined in TCA-precipitable fraction.
If NEM-induced DNA synthesis may influence proliferative activity of a prostate tumor and other cancer cells, then its immunoneutralization should reduce the growth. This hypothesis was tested by studying the rate of 3H-thymidine incorporation in PC-3M prostate cancer cells. The cells were treated either with non-immune antiserum or anti-NEM antiserum at a final dilution of 1:50.

[5] = system: PC-3M cells; test: Matrigel in vitro invasion of PC-3M cells; type: cell-based
Procedure: FIG. 2 illustrates the effect of NEM on in vitro invasion of PC-3M cells. The experiment used 3 well Matrigel invasion chambers (Becton Dickinson, Bedford, Mass.). Approximately 200,000 PC-3M cells were seeded in the upper chamber in RPMI 1640 medium containing 0.1% BSA (Sigma, St. Louis), 4 mM L-glutamine, 100 IU/ml penicillin G and 100 ug/ml streptomycin. The lower chamber medium contained chemoattractant medium consisting of 80% complete medium (RPMI 1640, 12% horse serum, 4% […] fetal calf serum, 4 mM L-glutamine, 100 IU/ml penicillin G and […]). Different concentrations of NEM or conditioned media from NEM-PC3-M cells that express NEM (dilutions ranging from 1 to 5) were added to the upper chamber. The experiments were carried out for 72 hours. At the end of the incubation period the Matrigel was scraped off using cotton swabs and the top insert was fixed and stained using Diff Quick staining (Dade Diagnostics, Aguada, PR). The relative invasive potential was determined by normalizing for cell growth. This was done by plating 100,000 cells in six well dishes in chemoattractant medium and determining the relative growth of cells after 72 hours. The number of cells per 100×field were expressed as mean +/−SEM.
FIG. 4 illustrates the effect of the anti-NEM antiserum on invasion of PC-3M cells. […]

[6] = molecular target: NEM receptor on prostate cancer cells; test: cell-based or functional assay

Pindobind
growth of prostate cancer cell lines [1]: inhibit the growth

NEM: novel neuroendocrine growth factor or marker isolated from prostate cancer cells; amino acid SEQ ID NO: 6 expressed in PC-3M cells (RTCVLGYLHIVPEFIESQLLGLLSPVSL; listed as Homo sapiens)
receptor binding affinity [2]: high affinity (low nM) | growth of non-prostate cancer cells [3]: stimulates the growth | concentration at which the increase in DNA synthesis was significant ([4]; PC-3M cells): ≥ 10 nM | 3H-thymidine incorporation (DNA synthesis) ([4]; exogenously added NEM, serum-free medium): stimulated 3H-thymidine incorporation in a dose-dependent fashion | invasiveness of PC-3M cells ([5]; all concentrations of NEM significant vs 0, P<0.05, FIG. 2): in a dose-dependent fashion significantly increases the invasiveness | increase in invasiveness ([5]; from 0M to 10^-6M NEM, 72 hours, FIG. 2): 70%

B1: neuroendocrine growth factor or marker (NEM) (ligand)
chain: RTCVLGYLHIVPEFIESQLLGLLSPVSL
modifications: also: 125I-labelled form used in RIA
3H-thymidine incorporation (DNA synthesis) in PC-3M cells [6]: > 10 nM | in vitro Matrigel invasion of PC-3M cells [6]: 70%

— patent US7026454B1, “Neuroendocrine marker of prostate cancer and method for producing same” (University of Kansas Medical Center, priority 1998, dated 2006)
